Measured values: patent US10494376B2, “Tetrahydroisoquinoline derived PRMT5-inhibitors” (CTXT PTY LTD, priority 2014, dated 2019)
pIC50: −log10 of the molar value. Structures can show the parent of a compound that is named as a salt.

Target: Full-length PRMT5 enzyme (NCBI Reference sequence NP_006100.2) co-expressed with His6-MEP50 (Homo sapiens (Human), UniProt O14744)
Assay: Revised PRMT5 Biochemical Assay
Details: 1 μM peptide substrate, 1 μM S-Adenosyl methionine, 4 hours at 37 degree Celsius, Transcreener EPIGEN fluorescence polarisation
Method: Compounds of the invention may be tested for in vitro activity in the following assay: A histone H4 derived peptide is used as substrate (amino acid sequence: […]N H2). Full-length PRMT5 enzyme (NCBI Reference sequence NP_006100.2) was co-expressed with His6-MEP50 in insect cells and purified via Nickel immobilized metal affinity and gel filtration chromatography (“the enzyme”).
The 6 μL reactions are run in Greiner brand black 384-well low volume assay plates. All reactions contained assay buffer (phosphate buffered saline, 0.01% (v/v) Tween-20, 0.01% (w/v) albumin from chicken egg white, 1 mM Dithiothreitol, 1 μM peptide substrate, 1 μM S-Adenosyl methionine, and 15 ng/reaction enzyme, with the enzyme being omitted from negative control reactions. Compounds were added in a volume of 100 nL from dilution series prepared in DMSO, positive and negative control reactions receiving the same volume DMSO without compound. The plates were sealed with adhesive seals and incubated for 4 hours at 37 degree Celsius. Reaction progress was measured using the Transcreener™ EPIGEN methyltransferase assay (BellBrook Labs, Madison, Wis.) as recommended by the manufacturer. To each reaction 2 μL detection mix were added, containing coupling enzymes, fluorescence polarisation tracer, and AMP antibody. Plates were incubated for 90 minutes before being read on a PerkinElmer EnVision™ plate reader in fluorescence polarisation mode. IC50 values were obtained from the raw readings by calculating percent inhibition (%1) for each reaction relative to controls on the same plate (% I=(I−CN)/(CP−CN) where CN/CP are the averages of the negative/positive reactions, respectively), then fitting the %1 data vs. compound concentration [I] to % I=(A+((B−A)/(1+((C/[I])^D)))) where A is the lower asymptote, B is the upper asymptote, C is the IC50 value, and D is the slope.

Sequence of Full-length PRMT5 enzyme (NCBI Reference sequence NP_006100.2) co-expressed with His6-MEP50 (O14744 whole entry): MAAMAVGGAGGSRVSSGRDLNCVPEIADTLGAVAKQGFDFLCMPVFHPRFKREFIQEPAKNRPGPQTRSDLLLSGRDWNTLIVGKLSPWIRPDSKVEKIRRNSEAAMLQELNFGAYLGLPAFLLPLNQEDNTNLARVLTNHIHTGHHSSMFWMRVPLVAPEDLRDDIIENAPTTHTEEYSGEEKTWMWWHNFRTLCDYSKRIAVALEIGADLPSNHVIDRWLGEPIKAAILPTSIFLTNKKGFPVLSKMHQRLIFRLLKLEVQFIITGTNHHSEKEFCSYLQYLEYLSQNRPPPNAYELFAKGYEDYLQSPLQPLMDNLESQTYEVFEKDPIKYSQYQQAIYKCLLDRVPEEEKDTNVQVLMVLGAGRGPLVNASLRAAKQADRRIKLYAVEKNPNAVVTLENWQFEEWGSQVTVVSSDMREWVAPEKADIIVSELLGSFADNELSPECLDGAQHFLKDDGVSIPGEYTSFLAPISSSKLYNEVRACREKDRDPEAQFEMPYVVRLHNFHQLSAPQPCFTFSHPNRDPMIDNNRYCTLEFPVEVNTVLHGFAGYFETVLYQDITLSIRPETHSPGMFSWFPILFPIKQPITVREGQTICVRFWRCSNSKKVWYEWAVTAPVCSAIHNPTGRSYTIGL
Sequence of Full-length PRMT5 enzyme (NCBI Reference sequence NP_006100.2) co-expressed with His6-MEP50 (Q9BQA1 whole entry partner): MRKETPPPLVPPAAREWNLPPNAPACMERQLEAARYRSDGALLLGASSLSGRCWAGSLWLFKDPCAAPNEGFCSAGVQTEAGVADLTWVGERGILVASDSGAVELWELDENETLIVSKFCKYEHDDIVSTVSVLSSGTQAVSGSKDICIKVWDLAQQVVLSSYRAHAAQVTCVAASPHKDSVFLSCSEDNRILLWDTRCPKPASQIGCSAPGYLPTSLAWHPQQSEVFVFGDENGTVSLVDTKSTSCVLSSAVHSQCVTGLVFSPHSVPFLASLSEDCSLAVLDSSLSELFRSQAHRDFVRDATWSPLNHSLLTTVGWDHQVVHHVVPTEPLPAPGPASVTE

pIC50	Structure (SMILES)
6.12	O=C(NC[C@@H](O)[C@@H]1Cc2ccccc2CN1)c1ccc(C(=O)N2CCCCO2)cc1 [Example 93, N-((R)-2-Hydroxy-2-((S)-1,2,3,4-tetrahydroisoquinolin-3-yl)ethyl)-4-(1,2-oxazinane-2-carbonyl)benzamide]
5.29	O=C(NC[C@@H](O)[C@@H]1Cc2ccccc2CN1)c1ccccc1C(F)F [Example 23, 2-(Difluoromethyl)-N-((R)-2-hydroxy-2-((S)-1,2,3,4-tetrahydroisoquinolin-3-yl)ethyl)benzamide]
6.30	COC(=O)N1CCC(Oc2cncc(C(=O)NC[C@@H](O)[C@@H]3Cc4ccccc4CN3)c2)CC1 [Example 118, Methyl 4-((5-(((R)-2-hydroxy-2-((S)-1,2,3,4-tetrahydroisoquinolin-3-yl)ethyl)carbamoyl)pyridin-3-yl)oxy)piperidine-1-carboxylate dihydrochloride]
5.43	O=C(NC[C@@H](O)[C@@H]1Cc2ccccc2CN1)c1cccc(C(=O)N2CCOCC2)c1 [Example 24, N-((R)-2-Hydroxy-2-((S)-1,2,3,4-tetrahydroisoquinolin-3-yl)ethyl)-3-(morpholine-4-carbonyl)benzamide]
6.69	O=C(NCC1CCOCC1)c1ccc(C(=O)NC[C@@H](O)[C@@H]2Cc3ccccc3CN2)cc1 [Example 31, N^1-((R)-2-Hydroxy-2-((S)-1,2,3,4-tetrahydroisoquinolin-3-yl)ethyl)-N^4-((tetrahydro-2H-pyran-4-yl)methyl)terephthalamide]
6.52	CCS(=O)(=O)N1CCN(C(=O)c2ccc(C(=O)NC[C@@H](O)[C@@H]3Cc4ccccc4CN3)cc2)CC1 [Example 33, 4-(4-(Ethylsulfonyl)piperazine-1-carbonyl)-N-((R)-2-hydroxy-2-((S)-1,2,3,4-tetrahydroisoquinolin-3-yl)ethyl)benzamide]
6.73	CC(=O)N1CCC(c2nc3cc(C(=O)NC[C@@H](O)[C@@H]4Cc5ccccc5CN4)ccc3[nH]2)CC1 [Example 88, 2-(1-Acetylpiperidin-4-yl)-N-((R)-2-hydroxy-2-((S)-1,2,3,4-tetrahydroisoquinolin-3-yl)ethyl)-1H-benzo[d]imidazole-5-carboxamide]
5.65	CC(=O)N1CCC(Oc2ccccc2C(=O)NC[C@@H](O)[C@@H]2Cc3ccccc3CN2)CC1 [Example 68, 2-((1-Acetylpiperidin-4-yl)oxy)-N-((R)-2-hydroxy-2-((S)-1,2,3,4-tetrahydroisoquinolin-3-yl)ethyl)benzamide]
6.72	O=C(NC[C@@H](O)[C@@H]1Cc2ccccc2CN1)c1ccc(Cl)cc1 [Example 48, 4-Chloro-N—((R)-2-hydroxy-2-((S)-1,2,3,4-tetrahydroisoquinolin-3-yl)ethyl)benzamide]
6.30	O=C(NC[C@@H](O)[C@@H]1Cc2ccccc2CN1)c1ccc(C(=O)N2CCC(O)CC2)cc1 [Example 45, N-((R)-2-Hydroxy-2-((S)-1,2,3,4-tetrahydroisoquinolin-3-yl)ethyl)-4-(4-hydroxypiperidine-1-carbonyl)benzamide]
6.23	O=C(NC[C@@H](O)[C@@H]1Cc2ccccc2CN1)c1ccc(OCC(F)(F)F)nc1 [Example 57, N-((R)-2-Hydroxy-2-((S)-1,2,3,4-tetrahydroisoquinolin-3-yl)ethyl)-6-(2,2,2-trifluoroethoxy)nicotinamide]
5.90	O=C(NC[C@@H](O)[C@@H]1Cc2ccccc2CN1)c1ccc(C(=O)NC2CCC(F)(F)CC2)cc1 [Example 44, N^1-(4,4-Difluorocyclohexyl)-N^4-((R)-2-hydroxy-2-((S)-1,2,3,4-tetrahydroisoquinolin-3-yl)ethyl)terephthalamide]
4.70	COc1ccccc1C(=O)NC[C@@H](O)[C@@H]1Cc2ccccc2CN1 [Example 7, N-((R)-2-Hydroxy-2-((S)-1,2,3,4-tetrahydroisoquinolin-3-yl)ethyl)-2-methoxybenzamide]
6.83	O=C(NC[C@@H](O)[C@@H]1Cc2ccccc2CN1)c1ccc(C(=O)N2C[C@H]3COC[C@H]3C2)cc1 [Example 36, 4-(cis-Hexahydro-1H-furo[3,4-c]pyrrole-5-carbonyl)-N-((R)-2-hydroxy-2-((S)-1,2,3,4-tetrahydroisoquinolin-3-yl)ethyl)benzamide]
5.67	O=C(NC[C@@H](O)[C@@H]1Cc2ccccc2CN1)c1cccc(C(F)F)c1 [Example 22, 3-(Difluoromethyl)-N-((R)-2-hydroxy-2-((S)-1,2,3,4-tetrahydroisoquinolin-3-yl)ethyl)benzamide]
6.51	COC(=O)N1CCN(C(=O)c2ccc(C(=O)NC[C@@H](O)[C@@H]3Cc4ccccc4CN3)cc2)CC1 [Example 67, Methyl 4-(4-(((R)-2-hydroxy-2-((S)-1,2,3,4-tetrahydroisoquinolin-3-yl)ethyl)carbamoyl)benzoyl)piperazine-1-carboxylate]
5.68	O=C(NC[C@@H](O)[C@@H]1Cc2ccccc2CN1)c1cccc(-c2cncnc2)c1 [Example 18, N-((R)-2-Hydroxy-2-((S)-1,2,3,4-tetrahydroisoquinolin-3-yl)ethyl)-3-(pyrimidin-5-yl)benzamide]
6.01	O=C(NC[C@@H](O)[C@@H]1Cc2ccccc2CN1)c1ccc(C(=O)N2CCCC(O)C2)cc1 (stereo partly drawn) [Example 43, N-((R)-2-Hydroxy-2-((S)-1,2,3,4-tetrahydroisoquinolin-3-yl)ethyl)-4-(3-hydroxypiperidine-1-carbonyl)benzamide]
5.06	O=C(NC[C@@H](O)[C@@H]1Cc2ccccc2CN1)c1ccncc1 [Example 77, N-((R)-2-Hydroxy-2-((S)-1,2,3,4-tetrahydroisoquinolin-3-yl)ethyl)isonicotinamide dihydrochloride]
6.99	CC(C)COC(=O)N1CCC(Oc2cc(C(=O)NC[C@@H](O)[C@@H]3Cc4ccccc4CN3)ccn2)CC1 [Example 62, Isobutyl 4-((4-(((R)-2-hydroxy-2-((S)-1,2,3,4-tetrahydroisoquinolin-3-yl)ethyl)carbamoyl)pyridin-2-yl)oxy)piperidine-1-carboxylate]
6.18	O=C(NC[C@@H](O)[C@@H]1Cc2ccccc2CN1)c1cccc(-c2ccnnc2)c1 [Example 12, N-((R)-2-Hydroxy-2-((S)-1,2,3,4-tetrahydroisoquinolin-3-yl)ethyl)-3-(pyridazin-4-yl)benzamide]
5.64	NC(=O)COc1ccccc1C(=O)NC[C@@H](O)[C@@H]1Cc2ccccc2CN1 [Example 65, 2-(2-Amino-2-oxoethoxy)-N-((R)-2-hydroxy-2-((S)-1,2,3,4-tetrahydroisoquinolin-3-yl)ethyl)benzamide]
6.26	O=C(NC[C@@H](O)[C@@H]1Cc2ccccc2CN1)c1ccc(-c2nnc(N3CCOCC3)o2)cc1 [Example 13, N-((R)-2-Hydroxy-2-((S)-1,2,3,4-tetrahydroisoquinolin-3-yl)ethyl)-4-(5-morpholino-1,3,4-oxadiazol-2-yl)benzamide]
5.63	O=C(NC[C@@H](O)[C@@H]1Cc2ccccc2CN1)c1coc(-c2ccccc2)n1 [Example 14, N-((R)-2-Hydroxy-2-((S)-1,2,3,4-tetrahydroisoquinolin-3-yl)ethyl)-2-phenyloxazole-4-carboxamide]
6.27	O=C(NC[C@@H](O)[C@@H]1Cc2ccccc2CN1)c1ccc(C(=O)N2CCOCC2)cn1 [Example 29, N-((R)-2-Hydroxy-2-((S)-1,2,3,4-tetrahydroisoquinolin-3-yl)ethyl)-5-(morpholine-4-carbonyl)picolinamide dihydrochloride salt]
6.51	COC1CCN(C(=O)c2ccc(C(=O)NC[C@@H](O)[C@@H]3Cc4ccccc4CN3)cc2)CC1 [Example 92, N-((R)-2-Hydroxy-2-((S)-1,2,3,4-tetrahydroisoquinolin-3-yl)ethyl)-4-(4-methoxypiperidine-1-carbonyl)benzamide]

Structure (SMILES)	pIC50
O=C(NC[C@@H](O)[C@@H]1Cc2ccccc2CN1)c1ccc(C(=O)N2C3CCC2CC3)cc1 [Example 91, 4-(7-Azabicyclo[2.2.1]heptane-7-carbonyl)-N-((R)-2-hydroxy-2-((S)-1,2,3,4-tetrahydroisoquinolin-3-yl)ethyl)benzamide]	6.91
CCOc1cc(C(=O)N2C3CCC2COC3)ccc1C(=O)NC[C@@H](O)[C@@H]1Cc2cc(C)ccc2CN1 [Example 125, 4-(3-Oxa-8-azabicyclo[3.2.1]octane-8-carbonyl)-2-ethoxy-N—((R)-2-hydroxy-2-((S)-6-methyl-1,2,3,4-tetrahydroisoquinolin-3-yl)ethyl)benzamide hydrochloride]	6.63
